# Results reported in ChEMBL document CHEMBL1126522, “Indolocarbazoles. 1. Total synthesis and protein kinase inhibiting characteristics of compounds related to K-252c” (Bioorg Med Chem Lett, 1993).
# Target: not listed separately
# Experiment: Displacement of ATP from myosin light chain kinase
row,Compound,Ki
1,O=C1NC(=O)c2c1c1c3ccccc3n3c1c1c2c2ccccc2n1[C@@H]1O[C@H]3C[C@@H]1CO,0.7 nM

# Target: Protein kinase C (PKC) (Rattus norvegicus) (UniProt P05696+P68403+P09216+P63319+P09215+Q64617+Q9WTQ0+P09217)
# Experiment: Inhibition of partially purified rat brain protein kinase C
row,Compound,Inhibition
1,O=C1NC(=O)c2c1c1c3ccccc3n3c1c1c2c2ccccc2n1[C@@H]1O[C@H]3C[C@@]1(O)C(=O)O,6 nM
2,CNC(=O)[C@@H]1C[C@@H]2O[C@H]1n1c3ccccc3c3c4c(c5c6ccccc6n2c5c31)C(=O)NC4=O,0.5 nM
3,O=C1NC(O)c2c1c1c3ccccc3n3c1c1c2c2ccccc2n1[C@H]1CC[C@@H]3O1 (stereo partly drawn),50 nM
4,S=C1NC(=S)c2c1c1c3ccccc3n3c1c1c2c2ccccc2n1[C@H]1CC[C@@H]3O1,42 nM
5,O=C1NC(=O)c2c1c1c3ccccc3n3c1c1c2c2ccccc2n1[C@@H]1O[C@H]3C[C@@H]1CO,1.7 nM
6,O=C1NC(=O)c2c1c1c3ccccc3n3c1c1c2c2ccccc2n1[C@@H]1O[C@H]3C[C@H]1C(=O)O,20 nM
7,NN1C(=O)c2c(c3c4ccccc4n4c3c3c2c2ccccc2n3[C@@H]2CC[C@H]4O2)C1=O,> 5000 nM
8,CN(C)C[C@@H]1C[C@@H]2O[C@H]1n1c3ccccc3c3c4c(c5c6ccccc6n2c5c31)C(=O)NC4=O,4 nM
9,O=C1NCc2c1c1c3ccccc3n3c1c1c2c2ccccc2n1[C@H]1CC[C@@H]3O1,18 nM
10,O=C1NC(=S)c2c1c1c3ccccc3n3c1c1c2c2ccccc2n1[C@H]1CC[C@@H]3O1,58 nM
11,C=C1C[C@@H]2O[C@H]1n1c3ccccc3c3c4c(c5c6ccccc6n2c5c31)C(=O)NC4=O,5 nM
12,O=C1NC(=O)c2c1c1c3ccccc3n3c1c1c2c2ccccc2n1[C@H]1CC[C@@H]3O1,19 nM
13,CN1C(=O)c2c(c3c4ccccc4n4c3c3c2c2ccccc2n3[C@@H]2CC[C@H]4O2)C1=O,> 5000 nM
14,NC1=NC(=O)c2c1c1c3ccccc3n3c1c1c2c2ccccc2n1[C@@H]1CC[C@H]3O1,13 nM
15,O=C1NC(=O)c2c1c1c3ccccc3n3c1c1c2c2ccccc2n1[C@@H]1O[C@H]3C[C@H]1CO,2.4 nM

# Target: Receptor tyrosine-protein kinase erbB-2 (Homo sapiens, UniProt P04626)
# Sequence (P04626 whole entry): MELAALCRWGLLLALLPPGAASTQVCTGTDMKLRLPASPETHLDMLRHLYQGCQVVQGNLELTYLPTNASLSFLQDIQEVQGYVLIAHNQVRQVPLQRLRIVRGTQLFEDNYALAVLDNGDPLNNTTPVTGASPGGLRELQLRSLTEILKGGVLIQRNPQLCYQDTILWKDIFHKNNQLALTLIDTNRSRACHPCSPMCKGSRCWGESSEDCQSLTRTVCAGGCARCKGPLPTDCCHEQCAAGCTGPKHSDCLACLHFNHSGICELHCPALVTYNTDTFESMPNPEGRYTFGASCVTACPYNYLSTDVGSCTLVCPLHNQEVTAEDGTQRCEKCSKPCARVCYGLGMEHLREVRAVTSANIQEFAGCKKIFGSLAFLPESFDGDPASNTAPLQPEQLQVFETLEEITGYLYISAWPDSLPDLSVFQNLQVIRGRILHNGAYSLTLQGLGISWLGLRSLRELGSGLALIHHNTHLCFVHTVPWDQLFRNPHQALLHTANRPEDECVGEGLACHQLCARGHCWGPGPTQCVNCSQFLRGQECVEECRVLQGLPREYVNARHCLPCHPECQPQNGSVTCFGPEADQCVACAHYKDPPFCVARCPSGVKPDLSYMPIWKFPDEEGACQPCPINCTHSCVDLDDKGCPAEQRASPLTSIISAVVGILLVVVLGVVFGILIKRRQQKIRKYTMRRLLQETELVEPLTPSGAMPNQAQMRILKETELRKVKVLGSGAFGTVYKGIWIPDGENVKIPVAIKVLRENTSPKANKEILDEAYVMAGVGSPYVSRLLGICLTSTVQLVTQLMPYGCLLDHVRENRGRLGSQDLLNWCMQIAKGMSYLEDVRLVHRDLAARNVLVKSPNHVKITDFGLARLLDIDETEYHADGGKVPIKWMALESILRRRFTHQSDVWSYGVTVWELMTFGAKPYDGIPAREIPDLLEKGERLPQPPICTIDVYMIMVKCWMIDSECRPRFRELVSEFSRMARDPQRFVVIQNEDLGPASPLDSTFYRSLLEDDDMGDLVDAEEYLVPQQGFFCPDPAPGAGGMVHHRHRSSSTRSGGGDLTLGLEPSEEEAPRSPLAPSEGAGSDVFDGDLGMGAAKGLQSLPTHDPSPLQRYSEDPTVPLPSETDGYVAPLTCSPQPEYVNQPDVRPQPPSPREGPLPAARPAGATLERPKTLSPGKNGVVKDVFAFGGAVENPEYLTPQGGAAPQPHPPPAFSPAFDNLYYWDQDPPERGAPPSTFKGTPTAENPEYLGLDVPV
# Experiment: Inhibition of neu (erb-B2) HER2 kinase
row,Compound,IC50
1,O=C1NC(=O)c2c1c1c3ccccc3n3c1c1c2c2ccccc2n1[C@@H]1O[C@H]3C[C@@H]1CO,250 nM

# Target: cAMP-dependent protein kinase (PKA) (Homo sapiens, UniProt P22694+P17612+P22612)
# Experiment: Inhibition of cAMP-dependent protein kinase (PKA)
# Assay type: protein assay
row,Compound,IC50
1,O=C1NC(=O)c2c1c1c3ccccc3n3c1c1c2c2ccccc2n1[C@@H]1O[C@H]3C[C@@H]1CO,18.5 nM
